Values of other authors as cited in PMC5129521 (Diabetes, Obesity & Metabolism, 2016).

Details: mice

For CCCCCCCCCCCCCCCC(=O)N[C@@H](CCC(=O)NCCCC[C@H](NC(=O)[C@H](C)NC(=O)[C@H](C)NC(=O)[C@H](CCC(N)=O)NC(=O)CNC(=O)[C@H](CCC(=O)O)NC(=O)[C@H](CC(C)C)NC(=O)[C@H](Cc1ccc(O)cc1)NC(=O)[C@H](CO)NC(=O)[C@H](CO)NC(=O)[C@@H](NC(=O)[C@H](CC(=O)O)NC(=O)[C@H](CO)NC(=O)[C@@H](NC(=O)[C@H](Cc1ccccc1)NC(=O)[C@@H](NC(=O)CNC(=O)[C@H](CCC(=O)O)NC(=O)[C@H](C)NC(=O)[C@@H](N)Cc1cnc[nH]1)[C@@H](C)O)[C@@H](C)O)C(C)C)C(=O)N[C@@H](CCC(=O)O)C(=O)N[C@@H](Cc1ccccc1)C(=O)N[C@H](C(=O)N[C@@H](C)C(=O)N[C@@H](Cc1c[nH]c2ccccc12)C(=O)N[C@@H](CC(C)C)C(=O)N[C@H](C(=O)N[C@@H](CCCNC(=N)N)C(=O)NCC(=O)N[C@@H](CCCNC(=N)N)C(=O)NCC(=O)O)C(C)C)[C@@H](C)CC)C(=O)O [Liraglutide], the “Terminal plasma half‐life” value is given as about 7 h.
